Drawing on patent US10538555B2, “Macrocyclic inhibitors of the PD-1/PD-L1 and CD80(B7-1)/PD-L1 protein/protein interactions” (BRISTOL-MYERS SQUIBB COMPANY, priority 2014, dated 2020), this text covers IC50 for eleven compounds.

Where a SMILES comes first, the peptide text is derived from it. Bridges are numbered along the chain shown (N, C = ends). [ ]: non-standard residue; d: D form. ξ: configuration not given here. Hyp = O=C(O)[C@@H]1C[C@@H](O)CN1; NMeNle = CCCC[C@H](NC)C(=O)O; hSer = N[C@@H](CCO)C(=O)O; NMeA = CN[C@@H](C)C(=O)O; Orn = NCCC[C@H](N)C(=O)O; ξC = NC(CS)C(=O)O

For this assay, the target named is T1, Human PD-L1/PD-1 (Homo sapiens, UniProt Q9NZQ7).
T1 construct: TVMV protease cleavage site (C); made in house; host or cells: HEK293T cells
T1 sequence (Q9NZQ7 with tags, fused parts or gaps): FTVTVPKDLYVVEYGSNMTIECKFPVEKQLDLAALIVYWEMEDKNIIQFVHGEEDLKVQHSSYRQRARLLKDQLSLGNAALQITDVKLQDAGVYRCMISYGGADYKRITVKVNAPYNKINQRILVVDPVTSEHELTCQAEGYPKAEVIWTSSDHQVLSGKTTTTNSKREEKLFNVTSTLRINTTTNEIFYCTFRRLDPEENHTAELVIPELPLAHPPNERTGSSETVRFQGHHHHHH
The assay is described as follows: HTRF Human PD-L1/PD-1 binding assay (PD-1-Ig/PD-L1-His). Conditions: PD-L1-His 10 nM, PD-1-Ig 20 nM; class symbol; read-out: HTRF Human PD-L1/PD-1 Binding Assay IC50 Range. In short, it runs like this: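 Competition of macrocyclic peptides for PD-1/PD-L1 binding measured by HTRF in dPBS containing 0.1% BSA and 0.05% Tween-20. Compound and PD-L1-His (10 nM final) incubated 15 min before PD-1-Ig (20 nM final) and a further 15 min.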

`CCCC[C@H]1C(=O)N[C@@H](CC(N)=O)C(=O)N2CCC[C@H]2C(=O)N[C@@H](CO)C(=O)N[C@@H](CCO)C(=O)N2CCC[C@H]2C(=O)N[C@@H](Cc2c[nH]c3ccccc23)C(=O)N[C@@H](CO)C(=O)N[C@@H](Cc2c[nH]c3ccccc23)C(=O)N(C)[C@@H](C)C(=O)N(C)[C@@H](C)C(=O)N[C@@H](CCC(=O)O)C(=O)NC(C(=O)NCC(N)=O)CSCC(=O)N[C@@H](Cc2ccc(O)cc2)C(=O)N1C` (some centres unmarked) [Example 10209] ({CH2CO}-Y[NMeNle]NPS[hSer]PWSW[NMeA][NMeA]E[ξC]G-NH2; thioether N-14): the IC50 lay in the range of 1 to 10 µM. With `CCCC[C@H]1C(=O)N[C@@H](CC(N)=O)C(=O)N2CCC[C@H]2C(=O)N[C@@H](CO)C(=O)N[C@@H](CCO)C(=O)N2CCC[C@H]2C(=O)N[C@@H](Cc2c[nH]c3ccccc23)C(=O)N[C@@H](CO)C(=O)N[C@@H](Cc2c[nH]c3ccccc23)C(=O)N(C)[C@@H](C)C(=O)N(C)[C@@H](C)C(=O)N[C@@H](CCCN)C(=O)NC(C(=O)NCC(N)=O)CSCC(=O)N[C@@H](Cc2ccc(O)cc2)C(=O)N1C` (some centres unmarked) [Example 10210] ({CH2CO}-Y[NMeNle]NPS[hSer]PWSW[NMeA][NMeA][Orn][ξC]G-NH2; thioether N-14), the IC50 lay within 1 to 10 µM. In the case of `CCCC[C@H]1C(=O)N[C@@H](CC(N)=O)C(=O)N2CCC[C@H]2C(=O)N[C@@H](CO)C(=O)N[C@@H](CCO)C(=O)N2C[C@H](O)C[C@H]2C(=O)N[C@@H](Cc2c[nH]c3ccccc23)C(=O)N[C@@H](CO)C(=O)N[C@@H](Cc2c[nH]c3ccccc23)C(=O)N(C)[C@@H](C)C(=O)N(C)[C@@H](C)C(=O)N[C@@H](CCCCN)C(=O)NC(C(=O)NCC(N)=O)CSCC(=O)N[C@@H](Cc2ccc(O)cc2)C(=O)N1C` (some centres unmarked) [Example 10211] ({CH2CO}-Y[NMeNle]NPS[hSer][Hyp]WSW[NMeA][NMeA]K[ξC]G-NH2; thioether N-14), the IC50 was 1 to 10 µM. With `CCCC[C@H]1C(=O)N[C@@H](CC(N)=O)C(=O)N2CCC[C@H]2C(=O)N[C@@H](CO)C(=O)N[C@@H](CCO)C(=O)N2C[C@H](O)C[C@H]2C(=O)N[C@@H](Cc2c[nH]c3ccccc23)C(=O)N[C@@H](CO)C(=O)N[C@@H](Cc2c[nH]c3ccccc23)C(=O)N(C)[C@@H](C)C(=O)N(C)[C@@H](C)C(=O)N[C@@H](CCC(=O)O)C(=O)NC(C(=O)NCC(N)=O)CSCC(=O)N[C@@H](Cc2ccc(O)cc2)C(=O)N1C` (some centres unmarked) [Example 10212] ({CH2CO}-Y[NMeNle]NPS[hSer][Hyp]WSW[NMeA][NMeA]E[ξC]G-NH2; thioether N-14), the IC50 lay in the range of 1 to 10 µM. To `CCCC[C@H]1C(=O)N[C@@H](CC(N)=O)C(=O)N2CCC[C@H]2C(=O)N[C@@H](CO)C(=O)N[C@@H](CCO)C(=O)N2C[C@H](O)C[C@H]2C(=O)N[C@@H](Cc2c[nH]c3ccccc23)C(=O)N[C@@H](CO)C(=O)N[C@@H](Cc2c[nH]c3ccccc23)C(=O)N(C)[C@@H](C)C(=O)N(C)[C@@H](C)C(=O)N[C@@H](CCCN)C(=O)NC(C(=O)NCC(N)=O)CSCC(=O)N[C@@H](Cc2ccc(O)cc2)C(=O)N1C` (some centres unmarked) [Example 10213] ({CH2CO}-Y[NMeNle]NPS[hSer][Hyp]WSW[NMeA][NMeA][Orn][ξC]G-NH2; thioether N-14) belongs 1 to 10 µM. Next, `CCCC[C@H]1C(=O)N[C@@H](CC(N)=O)C(=O)N2CCC[C@H]2C(=O)N[C@@H](CO)C(=O)N[C@@H](CCO)C(=O)N2CCC[C@H]2C(=O)N[C@@H](Cc2c[nH]c3ccccc23)C(=O)N[C@@H](CCO)C(=O)N[C@@H](Cc2c[nH]c3ccccc23)C(=O)N(C)[C@@H](C)C(=O)N(C)[C@@H](C)C(=O)N[C@@H](CCCCN)C(=O)NC(C(=O)NCC(N)=O)CSCC(=O)N[C@@H](Cc2ccc(O)cc2)C(=O)N1C` (some centres unmarked) [Example 10214] ({CH2CO}-Y[NMeNle]NPS[hSer]PW[hSer]W[NMeA][NMeA]K[ξC]G-NH2; thioether N-14): 1 to 10 µM; `CCCC[C@H]1C(=O)N[C@@H](CC(N)=O)C(=O)N2CCC[C@H]2C(=O)N[C@@H](CO)C(=O)N[C@@H](CCO)C(=O)N2CCC[C@H]2C(=O)N[C@@H](Cc2c[nH]c3ccccc23)C(=O)N[C@@H](CCO)C(=O)N[C@@H](Cc2c[nH]c3ccccc23)C(=O)N(C)[C@@H](C)C(=O)N(C)[C@@H](C)C(=O)N[C@@H](CCC(=O)O)C(=O)NC(C(=O)NCC(N)=O)CSCC(=O)N[C@@H](Cc2ccc(O)cc2)C(=O)N1C` (some centres unmarked) [Example 10215] ({CH2CO}-Y[NMeNle]NPS[hSer]PW[hSer]W[NMeA][NMeA]E[ξC]G-NH2; thioether N-14): 1 to 10 µM.

For `CCCC[C@H]1C(=O)N[C@@H](CC(N)=O)C(=O)N2CCC[C@H]2C(=O)N[C@@H](CO)C(=O)N[C@@H](CCO)C(=O)N2CCC[C@H]2C(=O)N[C@@H](Cc2c[nH]c3ccccc23)C(=O)N[C@@H](CCO)C(=O)N[C@@H](Cc2c[nH]c3ccccc23)C(=O)N(C)[C@@H](C)C(=O)N(C)[C@@H](C)C(=O)N[C@@H](CCCN)C(=O)NC(C(=O)NCC(N)=O)CSCC(=O)N[C@@H](Cc2ccc(O)cc2)C(=O)N1C` (some centres unmarked) [Example 10216] ({CH2CO}-Y[NMeNle]NPS[hSer]PW[hSer]W[NMeA][NMeA][Orn][ξC]G-NH2; thioether N-14), the IC50 was in the range of 1 to 10 µM. Next, `CCCC[C@H]1C(=O)N[C@@H](CC(N)=O)C(=O)N2CCC[C@H]2C(=O)N[C@@H](CO)C(=O)N[C@@H](CCO)C(=O)N2C[C@H](O)C[C@H]2C(=O)N[C@@H](Cc2c[nH]c3ccccc23)C(=O)N[C@@H](CCO)C(=O)N[C@@H](Cc2c[nH]c3ccccc23)C(=O)N(C)[C@@H](C)C(=O)N(C)[C@@H](C)C(=O)N[C@@H](CCCCN)C(=O)NC(C(=O)NCC(N)=O)CSCC(=O)N[C@@H](Cc2ccc(O)cc2)C(=O)N1C` (some centres unmarked) [Example 10217] ({CH2CO}-Y[NMeNle]NPS[hSer][Hyp]W[hSer]W[NMeA][NMeA]K[ξC]G-NH2; thioether N-14): 1 to 10 µM. On to `CCCC[C@H]1C(=O)N[C@@H](CC(N)=O)C(=O)N2CCC[C@H]2C(=O)N[C@@H](CO)C(=O)N[C@@H](CCO)C(=O)N2C[C@H](O)C[C@H]2C(=O)N[C@@H](Cc2c[nH]c3ccccc23)C(=O)N[C@@H](CCO)C(=O)N[C@@H](Cc2c[nH]c3ccccc23)C(=O)N(C)[C@@H](C)C(=O)N(C)[C@@H](C)C(=O)N[C@@H](CCC(=O)O)C(=O)NC(C(=O)NCC(N)=O)CSCC(=O)N[C@@H](Cc2ccc(O)cc2)C(=O)N1C` (some centres unmarked) [Example 10218] ({CH2CO}-Y[NMeNle]NPS[hSer][Hyp]W[hSer]W[NMeA][NMeA]E[ξC]G-NH2; thioether N-14), for which the IC50 fell in the range of 1 to 10 µM. As for `CCCC[C@H]1C(=O)N[C@@H](CC(N)=O)C(=O)N2CCC[C@H]2C(=O)N[C@@H](CO)C(=O)N[C@@H](CCO)C(=O)N2C[C@H](O)C[C@H]2C(=O)N[C@@H](Cc2c[nH]c3ccccc23)C(=O)N[C@@H](CCO)C(=O)N[C@@H](Cc2c[nH]c3ccccc23)C(=O)N(C)[C@@H](C)C(=O)N(C)[C@@H](C)C(=O)N[C@@H](CCCN)C(=O)NC(C(=O)NCC(N)=O)CSCC(=O)N[C@@H](Cc2ccc(O)cc2)C(=O)N1C` (some centres unmarked) [Example 10219] ({CH2CO}-Y[NMeNle]NPS[hSer][Hyp]W[hSer]W[NMeA][NMeA][Orn][ξC]G-NH2; thioether N-14), the IC50 was 1 to 10 µM.
